Tests used:
Male C57BL/6N mice = experiment: Triglyceride absorption suppression after fat loading (in vivo DGAT1 inhibitory effect); settings: Mus musculus, po; dose of 10 mg/kg or lower, orally administered, mice fasted overnight, plasma triglyceride after fat loading; read-out: Triglyceride absorption suppressive activity
Outline: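 Overnight-fasted male C57BL/6N mice dosed orally with compound (1 to 10 mg/kg in 0.5% methylcellulose), then given Pluronic-F127 1 g/kg i.p. and an oral 20% Intralipid load. Plasma triglyceride measured 1 to 4 h later. Absorption suppression (%) calculated against water-loaded and fat-loaded vehicle groups.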

DGAT1 enzyme = biological target: T1, DGAT1 enzyme (Homo sapiens, UniProt O75907); experiment: DGAT1 inhibitory activity test; type: biochemical; settings: test compound concentration of 0.05 μg/ml; read-out: Inhibitory Rate
T1 construct: made in house
T1 sequence (O75907 1-488): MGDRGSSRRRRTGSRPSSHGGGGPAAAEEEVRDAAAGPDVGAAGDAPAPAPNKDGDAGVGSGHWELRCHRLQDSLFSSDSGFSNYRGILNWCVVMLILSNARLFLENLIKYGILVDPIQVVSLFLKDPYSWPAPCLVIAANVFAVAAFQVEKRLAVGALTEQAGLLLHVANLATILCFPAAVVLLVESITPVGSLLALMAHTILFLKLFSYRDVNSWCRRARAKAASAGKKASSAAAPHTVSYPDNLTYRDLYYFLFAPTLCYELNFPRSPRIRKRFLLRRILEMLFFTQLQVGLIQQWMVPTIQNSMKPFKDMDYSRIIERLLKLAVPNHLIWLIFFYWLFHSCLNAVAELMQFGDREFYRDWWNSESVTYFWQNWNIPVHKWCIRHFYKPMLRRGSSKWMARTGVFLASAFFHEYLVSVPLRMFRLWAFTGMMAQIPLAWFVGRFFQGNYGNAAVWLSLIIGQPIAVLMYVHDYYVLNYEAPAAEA
Outline: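 Reaction at 23° C for 30 min in 175 mM Tris-HCl pH 8.0, 8 mM MgCl2, 1 mg/ml BSA, 0.5% Triton X-100 with 0.3 mM 1,2-dioleoyl-sn-glycerol and 10 μM [14C]-oleoyl-CoA. Triglyceride extracted into heptane, separated by TLC, radioactivity quantified; % inhibition versus vehicle control, 0-min background subtracted.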

Question: For O=C(O)C[C@H]1CC[C@H](OC(=O)N2CCc3cc(Nc4nc5ccc(Cl)cc5o4)ccc3C2)CC1 [Example 47, trans-6-(6-chloro-benzoxazol-2-ylamino)-3,4-dihydro-1H-isoquinoline-2-carboxylic acid 4-carboxymethyl-cyclohexyl ester], which inhibition in vivo at up to 10 mg/kg (Male C57BL/6N mice) is on record?
Answer: Its inhibition in vivo at up to 10 mg/kg is ≥ 60%.

Question: And the inhibition at 0.05 µg/mL (DGAT1 enzyme)?
Answer: Its inhibition at 0.05 µg/mL is ≥ 50%.

Question: For O=C(O)CC1CCC(NC(=O)N2CCc3cc(NC(=O)Nc4ccccc4F)ccc3C2)CC1 (centres unmarked) [Example 5, [4-({6-[3-(2-fluoro-phenyl)-ureido]-3,4-dihydro-1H-isoquinoline-2-carbonyl}-amino)-cyclohexyl]-acetic acid], which inhibition in vivo at up to 10 mg/kg (Male C57BL/6N mice) is on record?
Answer: The inhibition in vivo at up to 10 mg/kg was ≥ 60%.

Question: What about the inhibition at 0.05 µg/mL (DGAT1 enzyme) of the same molecule?
Answer: The inhibition at 0.05 µg/mL was ≥ 50%.

Question: CCOc1cccc(NC(=O)Nc2ccc3c(c2)CCN(C(=O)O[C@@H]2CC[C@@H](CC(=O)O)C[C@H]2C)C3)c1 (relative stereo) [Example 99, 6-[3-(3-ethoxy-phenyl)-ureido]-3,4-dihydro-1H-isoquinoline-2-carboxylic acid t-4-carboxymethyl-t-2-methyl-r-1-cyclohexyl ester] was tested. Which inhibition in vivo at up to 10 mg/kg (Male C57BL/6N mice) did it give?
Answer: The inhibition in vivo at up to 10 mg/kg was ≥ 60%.

Question: And the inhibition at 0.05 µg/mL (DGAT1 enzyme)?
Answer: Its inhibition at 0.05 µg/mL is ≥ 50%.

Question: Which inhibition in vivo at up to 10 mg/kg (Male C57BL/6N mice) does the source give for CC(C)(C)NC(=O)Nc1ccc2c(c1)CCN(C(=O)O[C@H]1CC[C@H](CC(=O)O)CC1)C2 [Example 82, trans-6-(3-tert-butyl-ureido)-3,4-dihydro-1H-isoquinoline-2-carboxylic acid 4-carboxymethyl-cyclohexyl ester] here?
Answer: The inhibition in vivo at up to 10 mg/kg was ≥ 60%.

Question: What about the inhibition at 0.05 µg/mL (DGAT1 enzyme) of the same molecule?
Answer: Its inhibition at 0.05 µg/mL is ≥ 50%.

Question: O=C(O)C[C@H]1CC[C@H](OC(=O)N2CCc3cc(NC(=O)Nc4cccc(F)c4)ccc3C2)CC1 [Example 67, trans-6-[3-(3-fluoro-phenyl)-ureido]-3,4-dihydro-1H-isoquinoline-2-carboxylic acid 4-carboxymethyl-cyclohexyl ester] was tested. Which inhibition in vivo at up to 10 mg/kg (Male C57BL/6N mice) did it give?
Answer: Its inhibition in vivo at up to 10 mg/kg is ≥ 60%.

Question: And the inhibition at 0.05 µg/mL (DGAT1 enzyme)?
Answer: Its inhibition at 0.05 µg/mL is ≥ 50%.

Question: With CCOc1cc(NC(=O)Nc2ccc3c(c2)CCN(C(=O)O[C@H]2CC[C@H](CC(=O)O)CC2)C3)ccc1C [Example 54, trans-6-[3-(3-ethoxy-4-methyl-phenyl)-ureido]-3,4-dihydro-1H-isoquinoline-2-carboxylic acid 4-carboxymethyl-cyclohexyl ester] as the molecule, how does the inhibition in vivo at up to 10 mg/kg (Male C57BL/6N mice) read?
Answer: Its inhibition in vivo at up to 10 mg/kg is ≥ 60%.

Question: What about the inhibition at 0.05 µg/mL (DGAT1 enzyme) of the same molecule?
Answer: Its inhibition at 0.05 µg/mL is ≥ 50%.

Question: How did the inhibition in vivo at up to 10 mg/kg (Male C57BL/6N mice) turn out when O=C(O)C[C@H]1CC[C@H](OC(=O)N2CCc3cc(NC(=O)Nc4cc(F)c(F)c(F)c4)ccc3C2)CC1 [Example 32, trans-6-[3-(3,4,5-trifluoro-phenyl)-ureido]-3,4-dihydro-1H-isoquinoline-2-carboxylic acid 4-carboxymethyl-cyclohexyl ester] was run?
Answer: Its inhibition in vivo at up to 10 mg/kg is ≥ 60%.

Question: And the inhibition at 0.05 µg/mL (DGAT1 enzyme)?
Answer: Its inhibition at 0.05 µg/mL is ≥ 50%.

Source: patent US8735425B2, “Tetrahydroisoquinoline derivative” (Daiichi Sankyo Company, Limited, priority 2008, dated 2014)
